Laboratory results reported in patent US20220117941A1, “CARBAMATE COMPOUND AND USE OF FORMULATION COMPRISING SAME IN PREVENTING, ALLEVIATING, OR TREATING ACUTE STRESS DISORDER OR POST-TRAUMATIC STRESS DISORDER” (SK BIOPHARMACEUTICALS CO., LTD., priority 2018, published 2022).
Structures can show the parent of a compound that is named as a salt.

How the values were obtained:
mice (CD-1) = assay: Forced swimming test in mice with combination of Test Compound and selective serotonergic reuptake inhibitor; assay type: in vivo; settings: CD-1 mice, 30 min after injection, FIG. 5
Method: Adult mice (CD-1) were used. The experimental animals were maintained at a light-and-darkness cycle of 12 hours (illuminated from 7 pm to 7 am), a temperature of 22 to 25° C., a relative humidity of 40 to 60%, and free access to water and food. The animals were randomly divided into four groups as follows: • Eight (8) mice as a control group, administered with intraperitoneal injection of saline as a vehicle at a dose volume of 10 ml/kg (Group 1) • Eight (8) mice as an experimental group, administered with intraperitoneal injection of Test Compound at a dose of 5 mg/kg (10 ml/kg) (Group 2) • Eight (8) mice as an experimental group, administered with intraperitoneal injection of fluoxetine hydrochloride at a dose of 10 mg/kg (10 ml/kg) (Group 3) • Eight (8) mice as an experimental group, administered with intraperitoneal injection of Test Compound at a dose of 5 mg/kg (10 ml/kg) and fluoxetine hydrochloride at a dose of 10 mg/kg (10 ml/kg) (Group 4)
To perform a forced swimming test in the mice of Groups 1 to 4, water of 25° C. was filled to a height of 20 cm in a transparent cylinder. […] The results are represented in FIG. 5.
Statistical analysis was carried out by using one-way ANOVA in Prism 7.04.

blood corticoid = assay: Measurement of corticoid in blood of SPS-induced post-traumatic stress disorder rats (ELISA); assay type: in vivo, rats (Sprague-Dawley); settings: SPS-induced PTSD rats; 30 mg/kg orally for 15 days; vs vehicle-treated PTSD-induced rats; FIG. 4
Method: Adult male rats (Sprague-Dawley, 200 to 230 g) were used. The experimental animals were maintained at a light-and-darkness cycle of 12 hours (illuminated from 7 pm to 7 am), a temperature of 22 to 25° C., a relative humidity of 40 to 60%, and free access to water and food. The animals were randomly divided into three groups as follows: • Eight (8) rats as a control group, orally administered with saline as a vehicle at a dose volume of 3 ml/kg (Group 1) • Seven (7) rats in which post-traumatic stress disorder was induced, and saline as a vehicle was then orally administered at a dose volume of 3 ml/kg (Group 2) • Seven (7) rats in which post-traumatic stress disorder was induced, and Test Compound was then orally administered at a dose of 30 mg/kg (3 ml/kg) (Group 3) […]
(§1) Post-traumatic stress disorder was induced in Group 2 and Group 3 as described above. […] All experimental animals were measured daily for changes in mortality and body weight to determine whether post-traumatic stress disorder was well induced. […]
Rats were sacrificed rapidly by decapitation on the day after the forced swimming test, and blood was quickly collected via the abdominal aorta. […] The corticoid concentration was measured by enzyme-linked immunoassay (ELISA) using a Novus Biologicals Corticosterone kit. The results were measured by means of an ELISA reader (MultiRead 400) to calculate the concentration of corticoid. […]

[1] = tested on: rats in which post-traumatic stress disorder was induced by single prolonged stress (SPS); assay: Forced swimming test in rats with post-traumatic stress disorder induced by single prolonged stress (SPS); assay type: in vivo, rats (Sprague-Dawley); settings: SPS-induced PTSD rats; 30 mg/kg orally for 15 days; FIGS. 1 to 3
Method: Adult male rats (Sprague-Dawley, 200 to 230 g) were used. The experimental animals were maintained at a light-and-darkness cycle of 12 hours (illuminated from 7 pm to 7 am), a temperature of 22 to 25° C., a relative humidity of 40 to 60%, and free access to water and food. […]
as §1
To carry out a forced swimming test in the rats of Groups 1 to 3, water of 25° C. was filled to a height of 30 cm in a transparent cylinder (20 cm in diameter×50 cm in height). […] After 24 hours, rats were inserted into the cylinder for 5 minutes and the escape behavior of rats was recorded and measured using a video camera. […] Climbing behavior measured the time to climb upward, immobility behavior measured the time to not escape, and swimming behavior measured the time to move horizontally in the cylinder. […]

Row | SMILES | immobility time in forced swimming test (fluoxetine alone) (mice (CD-1); fluoxetine hydrochloride 10 mg/kg intraperitoneal) | blood corticoid concentration (blood corticoid) | efficacy on symptoms associated with post-traumatic stress disorder (climbing, immobility and swimming behaviors in forced swimming test) [1] | immobility time in forced swimming test (Test Compound alone) (mice (CD-1); 5 mg/kg intraperitoneal)
1 | CNCCC(Oc1ccc(C(F)(F)F)cc1)c1ccccc1 (stereo not shown) [fluoxetine, fluoxetine hydrochloride, reference compound] | ineffective dose |  |  | 
2 | NC(=O)O[C@@H](Cn1ncnn1)c1ccccc1Cl [Test Compound] |  | statistically significant reduction | showing efficacy on alleviating symptoms associated with post-traumatic stress disorder | ineffective dose
